Test results taken from patent US11839613B2, “Pyrimidine derivatives as PGE2 receptor modulators” (IDORSIA PHARMACEUTICALS LTD, priority 2017, dated 2023).

Columns and labels:
[1] = target: PTGER4 (EP4) (Homo sapiens (Human), UniProt P35408); test: cell-based
[2] = target: PTGER2 (EP2) (Homo sapiens (Human), UniProt P43116); test: hEP2 b-arrestin assay (PathHunter HEK 293 PTGER2 b-arrestin cells); assay type: cell-based; conditions: antagonistic activity, beta-arrestin assay; read-out: hEP2 b-arr IC50
Sequence of PTGER2 (EP2) (P43116 whole entry): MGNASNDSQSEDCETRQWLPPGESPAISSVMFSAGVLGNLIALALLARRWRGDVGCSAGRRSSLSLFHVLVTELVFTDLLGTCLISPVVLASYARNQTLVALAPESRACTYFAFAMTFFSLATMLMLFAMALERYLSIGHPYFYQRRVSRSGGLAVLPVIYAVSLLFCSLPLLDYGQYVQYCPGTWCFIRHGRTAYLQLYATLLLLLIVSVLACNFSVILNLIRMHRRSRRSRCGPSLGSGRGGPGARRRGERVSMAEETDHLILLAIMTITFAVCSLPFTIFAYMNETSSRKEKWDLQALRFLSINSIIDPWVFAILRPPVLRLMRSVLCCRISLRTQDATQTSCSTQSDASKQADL
Protocol: Plate is pre-incubated 15 minutes at 37° C. Then five microliters of PGE2 (final conc. 5 μM) are transferred into the assay plate. Plate is incubated 120 minutes at 37° C.
(each concentration is measured in duplicate)

Sequence of PTGER4 (EP4) (P35408 whole entry): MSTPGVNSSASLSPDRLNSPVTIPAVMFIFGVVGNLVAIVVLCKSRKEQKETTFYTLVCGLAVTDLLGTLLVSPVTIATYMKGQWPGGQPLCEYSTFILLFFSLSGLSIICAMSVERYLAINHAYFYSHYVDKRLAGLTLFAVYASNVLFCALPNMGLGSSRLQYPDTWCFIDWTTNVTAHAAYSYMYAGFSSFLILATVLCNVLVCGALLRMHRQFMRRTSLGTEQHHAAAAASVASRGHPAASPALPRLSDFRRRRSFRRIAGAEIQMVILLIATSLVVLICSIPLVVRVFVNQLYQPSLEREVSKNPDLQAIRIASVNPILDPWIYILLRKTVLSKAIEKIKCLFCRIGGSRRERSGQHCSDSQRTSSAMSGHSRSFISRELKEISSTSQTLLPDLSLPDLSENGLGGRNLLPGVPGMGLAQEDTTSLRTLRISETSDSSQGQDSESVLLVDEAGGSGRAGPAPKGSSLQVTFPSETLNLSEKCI

Question: With `CCCc1cc(-c2cc(NCCc3cc4ccsc4cc3OC)ncn2)ccc1C(=O)O` [Example 377, 4-{6-[2-(6-Methoxy-benzo[b]thiophen-5-yl)-ethylamino]-pyrimidin-4-yl}-2-propyl-benzoic acid] as the compound, how does the IC50 [1] read?
Answer: 68 nM

Question: What about the IC50 [2] of the same compound?
Answer: 8 nM

Question: Which results are given for `CCCc1cc(-c2cc(NCCc3ccc4c(c3C)OCCO4)ncn2)ccc1CC(=O)O` [Example 504, (4-{6-[2-(5-Methyl-2,3-dihydro-benzo[1,4]dioxin-6-yl)-ethylamino]-pyrimidin-4-yl}-2-propyl-phenyl)-acetic acid]?
Answer: IC50 [1]: 167 nM; IC50 [2]: 108 nM

Question: How did the IC50 [1] turn out when `Cc1c(CCNc2cc(-c3ccc(C(=O)O)c(OC4CC4)c3)ncn2)ccc2c1OCCO2` [Example 519, 2-Cyclopropoxy-4-{6-[2-(5-methyl-2,3-dihydro-benzo[1,4]dioxin-6-yl)-ethylamino]-pyrimidin-4-yl}-benzoic acid] was run?
Answer: 262 nM

Question: What about the IC50 [2] of the same compound?
Answer: 19 nM

Question: With `CCOc1cc(-c2cc(NCCc3c(OC)cc4c(c3F)OCCO4)ncn2)ccc1C(=O)O` [Example 435, 2-Ethoxy-4-{6-[2-(5-fluoro-7-methoxy-2,3-dihydro-benzo[1,4]dioxin-6-yl)-ethylamino]-pyrimidin-4-yl}-benzoic acid] as the compound, how does the IC50 [1] read?
Answer: 110 nM

Question: What about the IC50 [2] of the same compound?
Answer: 46 nM

Question: What does the source list for `COc1c(CCNc2cc(-c3ccc(C(=O)O)c(SC)c3)ncn2)cc2ccsc2c1F` [Example 405, 4-{6-[2-(7-Fluoro-6-methoxy-benzo[b]thiophen-5-yl)-ethylamino]-pyrimidin-4-yl}-2-methylsulfanyl-benzoic acid]?
Answer: IC50 [1]: 79 nM; IC50 [2]: 9 nM

Question: With `Cc1c(CCNc2cc(-c3ccc(C(=O)O)c(OC4CCC4)c3)ncn2)ccc2ccsc12` [Example 471, 2-Cyclobutoxy-4-{6-[2-(7-methyl-benzo[b]thiophen-6-yl)-ethylamino]-pyrimidin-4-yl}-benzoic acid] as the compound, how does the IC50 [1] read?
Answer: 300 nM

Question: And the IC50 [2]?
Answer: 207 nM

Question: How did the IC50 [1] turn out when `CCSc1cc(-c2cc(NCCc3cc(F)c4sccc4c3)ncn2)ccc1C(=O)O` [Example 533, 2-Ethylsulfanyl-4-{6-[2-(7-fluoro-benzo[b]thiophen-5-yl)-ethylamino]-pyrimidin-4-yl}-benzoic acid] was run?
Answer: 53 nM

Question: What about the IC50 [2] of the same compound?
Answer: 211 nM

Question: With `CSc1cc(-c2cc(NCCc3ccc4ccsc4c3C)ncn2)ccc1C(=O)O` [Example 473, 4-{6-[2-(7-Methyl-benzo[b]thiophen-6-yl)-ethylamino]-pyrimidin-4-yl}-2-methylsulfanyl-benzoic acid] as the compound, how does the IC50 [1] read?
Answer: 275 nM

Question: What about the IC50 [2] of the same compound?
Answer: 137 nM

Question: What does the source list for `CC(C)Cc1cc(-c2cc(NCCc3ccc4sccc4c3F)ncn2)ccc1CC(=O)O` [Example 409, (4-{6-[2-(4-Fluoro-benzo[b]thiophen-5-yl)-ethylamino]-pyrimidin-4-yl}-2-isobutyl-phenyl)-acetic acid]?
Answer: IC50 [1]: 57 nM; IC50 [2]: 260 nM

Question: Which results are given for `O=c1c(O)c(-c2ccc(-c3cc(NCCc4cc(F)c5sccc5c4)ncn3)cc2)c1=O` [Example 536, 3-(4-{6-[2-(7-Fluoro-benzo[b]thiophen-5-yl)-ethylamino]-pyrimidin-4-yl}-phenyl)-4-hydroxy-cyclobut-3-ene-1,2-dione]?
Answer: IC50 [1]: 28 nM; IC50 [2]: 203 nM

Question: How did the IC50 [1] turn out when `COc1cc2ccccc2c(C)c1CCNc1cc(-c2ccc(CC(=O)O)c(OC(F)F)c2)ncn1` [Example 443, (2-Difluoromethoxy-4-{6-[2-(3-methoxy-1-methyl-naphthalen-2-yl)-ethylamino]-pyrimidin-4-yl}-phenyl)-acetic acid] was run?
Answer: 29 nM

Question: What about the IC50 [2] of the same compound?
Answer: 107 nM

Question: How did the IC50 [1] turn out when `CCCc1cc(-c2cc(NCCc3cc4c(cc3OCC)OCCO4)ncn2)ccc1C(C)C(=O)O` (racemic) [Example 487, rac-2-(4-{6-[2-(7-Ethoxy-2,3-dihydro-benzo[1,4]dioxin-6-yl)-ethylamino]-pyrimidin-4-yl}-2-propyl-phenyl)-propionic acid] was run?
Answer: 136 nM

Question: And the IC50 [2]?
Answer: 59 nM

Question: What does the source list for `CCn1cc(-c2cc(NCCc3cc(F)c4sccc4c3)ncn2)cc1C(=O)O` [Example 547, 1-Ethyl-4-{6-[2-(7-fluoro-benzo[b]thiophen-5-yl)-ethylamino]-pyrimidin-4-yl}-1H-pyrrole-2-carboxylic acid]?
Answer: IC50 [1]: 322 nM; IC50 [2]: 825 nM
